Assay results from publication PMC5218480 (PLoS ONE, 2017).

System: MV-4-11 cells
Experiment: Gene expression microarray analysis (Affymetrix PrimeView) and GSEA
Format: cell-based, human
Parameters: RFU PODN (11730768_x_at) / Fold change /veh PODN (11730768_x_at) / RFU LINC00158 (11744669_a_at) / Fold change /veh LINC00158 (11744669_a_at) / RFU DUSP10 (11751237_a_at) / Fold change /veh DUSP10 (11751237_a_at) / RFU ID3 (11757404_x_at) / Fold change /veh ID3 (11757404_x_at) / RFU PLEKHG5 (11737974_s_at) / Fold change /veh PLEKHG5 (11737974_s_at) / RFU LRRC4B (11730491_at) / Fold change /veh LRRC4B (11730491_at) / RFU GIMAP4 (11747438_a_at) / Fold change /veh GIMAP4 (11747438_a_at) / RFU KRT8 (11758183_x_at) / Fold change /veh KRT8 (11758183_x_at) / RFU CNN1 (11734310_a_at) / Fold change /veh CNN1 (11734310_a_at) / RFU VPS37D (11726825_at) / Fold change /veh VPS37D (11726825_at) / RFU C10orf10 (11716522_x_at) / Fold change /veh C10orf10 (11716522_x_at) / RFU KIR2DL2 /// KIR2DL4 /// KIR2DL5A /// KIR2DL5B /// KIR2DS1 /// KIR2DS2 /// KIR2DS3 /// KIR2DS4 /// KIR3DL3 /// KIR3DL3 /// KIR3DS1 (11738374_at) / Fold change /veh KIR2DL2 /// KIR2DL4 /// KIR2DL5A /// KIR2DL5B /// KIR2DS1 /// KIR2DS2 /// KIR2DS3 /// KIR2DS4 /// KIR3DL3 /// KIR3DL3 /// KIR3DS1 (11738374_at) / RFU C1QL1 (11718748_at) / Fold change /veh C1QL1 (11718748_at) / RFU TMPRSS4 (11747572_a_at) / Fold change /veh TMPRSS4 (11747572_a_at) / RFU HAMP (11756126_x_at) / Fold change /veh HAMP (11756126_x_at) / RFU RNFT2 (11725882_a_at) / Fold change /veh RNFT2 (11725882_a_at) / RFU NR4A2 (11747474_a_at) / Fold change /veh NR4A2 (11747474_a_at) / RFU ABCC12 (11746883_a_at) / Fold change /veh ABCC12 (11746883_a_at) / RFU TMEM136 (11760407_x_at) / Fold change /veh TMEM136 (11760407_x_at) / RFU CLDN22 /// WWC2 (11732394_at) / Fold change /veh CLDN22 /// WWC2 (11732394_at) / RFU HLA-DPB1 (11760878_x_at) / Fold change /veh HLA-DPB1 (11760878_x_at) / RFU SPINT1 (11716480_a_at) / Fold change /veh SPINT1 (11716480_a_at) / RFU GAP43 (11754022_s_at) / Fold change /veh GAP43 (11754022_s_at) / RFU A4GNT (11735810_at) / Fold change /veh A4GNT (11735810_at) / RFU PRB3 (11715151_x_at) / Fold change /veh PRB3 (11715151_x_at) / RFU TUBB4B (11761932_at) / Fold change /veh TUBB4B (11761932_at) / RFU CAPN14 (11732068_a_at) / Fold change /veh CAPN14 (11732068_a_at) / RFU TMCC2 (11721928_a_at) / Fold change /veh TMCC2 (11721928_a_at) / RFU IRGQ (11745062_a_at) / Fold change /veh IRGQ (11745062_a_at) / RFU FAM174B (11720279_a_at) / Fold change /veh FAM174B (11720279_a_at) / RFU TMPRSS4 (11748680_a_at) / Fold change /veh TMPRSS4 (11748680_a_at) / RFU FAM212B (11763350_a_at) / Fold change /veh FAM212B (11763350_a_at) / RFU PLEKHG5 (11743358_a_at) / Fold change /veh PLEKHG5 (11743358_a_at) / RFU ZSCAN30 (11745921_a_at) / Fold change /veh ZSCAN30 (11745921_a_at) / RFU CMKLR1 (11741424_a_at) / Fold change /veh CMKLR1 (11741424_a_at) / RFU LOC101060620 /// MAPK8IP1 (11723275_at) / Fold change /veh LOC101060620 /// MAPK8IP1 (11723275_at) / RFU SPTSSB (11747773_x_at) / Fold change /veh SPTSSB (11747773_x_at) / RFU PRSS12 (11739890_at) / Fold change /veh PRSS12 (11739890_at) / RFU BIN1 (11741810_x_at) / Fold change /veh BIN1 (11741810_x_at) / RFU WNT11 (11732464_a_at) / Fold change /veh WNT11 (11732464_a_at) / RFU C10orf10 (11716521_a_at) / Fold change /veh C10orf10 (11716521_a_at) / RFU C5orf56 (11738089_at) / Fold change /veh C5orf56 (11738089_at) / RFU CYB561 (11721691_x_at) / Fold change /veh CYB561 (11721691_x_at) / RFU ANKRD19P (11752326_a_at) / Fold change /veh ANKRD19P (11752326_a_at) / RFU OR2T12 /// OR2T33 /// OR2T8 (11738714_s_at) / Fold change /veh OR2T12 /// OR2T33 /// OR2T8 (11738714_s_at) / RFU VCAN (11748164_a_at) / Fold change /veh VCAN (11748164_a_at) / RFU JSRP1 (11732532_at) / Fold change /veh JSRP1 (11732532_at) / RFU KRTAP10-11 (11738290_x_at) / Fold change /veh KRTAP10-11 (11738290_x_at) / RFU MYO3A (11730013_a_at) / Fold change /veh MYO3A (11730013_a_at) / RFU EBF3 (11725865_a_at) / Fold change /veh EBF3 (11725865_a_at) / RFU CAMK2N1 (11719241_x_at) / Fold change /veh CAMK2N1 (11719241_x_at) / RFU C5orf56 (11738088_a_at) / Fold change /veh C5orf56 (11738088_a_at) / RFU OLFML3 (11715873_a_at) / Fold change /veh OLFML3 (11715873_a_at) / RFU LOC100653217 /// NTM (11731650_a_at) / Fold change /veh LOC100653217 /// NTM (11731650_a_at) / RFU MAPK11 (11762145_a_at) / Fold change /veh MAPK11 (11762145_a_at) / RFU FIZ1 (11724087_x_at) / Fold change /veh FIZ1 (11724087_x_at) / RFU OASL (11726364_x_at) / Fold change /veh OASL (11726364_x_at) / RFU SOX15 (11748057_x_at) / Fold change /veh SOX15 (11748057_x_at) / RFU CD79A (11719716_a_at) / Fold change /veh CD79A (11719716_a_at) / RFU HIST1H1D (11736915_at) / Fold change /veh HIST1H1D (11736915_at) / RFU CASKIN2 (11723855_a_at) / Fold change /veh CASKIN2 (11723855_a_at) / RFU LOC730098 (11760151_x_at) / Fold change /veh LOC730098 (11760151_x_at) / RFU OR4N2 (11742367_at) / Fold change /veh OR4N2 (11742367_at) / RFU PRRT2 (11749266_a_at) / Fold change /veh PRRT2 (11749266_a_at) / RFU SNX32 (11753110_a_at) / Fold change /veh SNX32 (11753110_a_at) / RFU CDHR5 (11726645_a_at) / Fold change /veh CDHR5 (11726645_a_at) / RFU RCAN1 (11760418_a_at) / Fold change /veh RCAN1 (11760418_a_at) / RFU FAM167A (11723789_a_at) / Fold change /veh FAM167A (11723789_a_at) / RFU FAM26E (11764081_at) / Fold change /veh FAM26E (11764081_at) / RFU ISYNA1 (11749810_s_at) / Fold change /veh ISYNA1 (11749810_s_at) / RFU ACY1 (11761880_at) / Fold change /veh ACY1 (11761880_at) / RFU 11764098_at / Fold change /veh 11764098_at / RFU SAMD14 (11745864_x_at) / Fold change /veh SAMD14 (11745864_x_at) / RFU NPB (11741838_a_at) / Fold change /veh NPB (11741838_a_at) / RFU TMPRSS6 (11731388_a_at) / Fold change /veh TMPRSS6 (11731388_a_at) / RFU KRTAP10-2 (11738614_at) / Fold change /veh KRTAP10-2 (11738614_at) / RFU ARHGAP8 /// PRR5-ARHGAP8 (11727945_x_at) / Fold change /veh ARHGAP8 /// PRR5-ARHGAP8 (11727945_x_at) / RFU KRTAP5-7 /// NADSYN1 (11734609_at) / Fold change /veh KRTAP5-7 /// NADSYN1 (11734609_at) / RFU RASL12 (11751679_a_at) / Fold change /veh RASL12 (11751679_a_at) / RFU CDKN2B (11736163_a_at) / Fold change /veh CDKN2B (11736163_a_at) / RFU PRF1 (11729649_at) / Fold change /veh PRF1 (11729649_at) / RFU, ZNF638 /// ZNF638-IT1 / Fold change vs veh, ZNF638 /// ZNF638-IT1 / RFU, PANK3 / Fold change vs veh, PANK3 / RFU, SH3YL1 / Fold change vs veh, SH3YL1 / RFU, ZEB2 / Fold change vs veh, ZEB2 / RFU, NRIP1 / Fold change vs veh, NRIP1 / RFU, PTTG1IP / Fold change vs veh, PTTG1IP / RFU, CAPN2 / Fold change vs veh, CAPN2 / RFU, MED14 / Fold change vs veh, MED14 / RFU, SNORA58 / Fold change vs veh, SNORA58 / RFU, C1orf63 / Fold change vs veh, C1orf63 / RFU, LRRFIP1 / Fold change vs veh, LRRFIP1 / RFU, NDUFAF7 / Fold change vs veh, NDUFAF7 / RFU, SLC12A2 / Fold change vs veh, SLC12A2 / RFU, IBTK / Fold change vs veh, IBTK / RFU, ESF1 / Fold change vs veh, ESF1 / Fold change vs veh, TMEM50B / RFU, TAOK1 / Fold change vs veh, TAOK1 / RFU, ACBD3 / Fold change vs veh, ACBD3 / RFU, TMA16 / Fold change vs veh, TMA16 / RFU, RWDD3 / Fold change vs veh, RWDD3 / RFU, BCAT1 / Fold change vs veh, BCAT1 / RFU, EDEM3 / Fold change vs veh, EDEM3 / RFU, TMEM33 / Fold change vs veh, TMEM33 / RFU, WDR75 / Fold change vs veh, WDR75 / RFU, AHCTF1 / Fold change vs veh, AHCTF1 / RFU, TFRC / Fold change vs veh, TFRC / RFU, ZDHHC17 / Fold change vs veh, ZDHHC17 / RFU, NOM1 / Fold change vs veh, NOM1 / RFU, ARL8B / Fold change vs veh, ARL8B / RFU, ZBTB11 / Fold change vs veh, ZBTB11 / RFU, TAMM41 / Fold change vs veh, TAMM41 / RFU, KIAA1704 /// LOC100996395 / Fold change vs veh, KIAA1704 /// LOC100996395 / RFU, ING1 / Fold change vs veh, ING1 / RFU, TRMT61B / Fold change vs veh, TRMT61B / RFU, FUBP3 / Fold change vs veh, FUBP3 / RFU, TP53 / Fold change vs veh, TP53 / RFU, TNKS2 / Fold change vs veh, TNKS2 / RFU, ZFP14 / Fold change vs veh, ZFP14 / RFU, ACTR2 / Fold change vs veh, ACTR2 / RFU, PPP3R1 / Fold change vs veh, PPP3R1 / RFU, PIK3R1 / Fold change vs veh, PIK3R1 / RFU, HNRNPA1 / Fold change vs veh, HNRNPA1 / RFU, RNF170 / Fold change vs veh, RNF170 / RFU, ZNF28 / Fold change vs veh, ZNF28 / RFU, RNGTT / Fold change vs veh, RNGTT / RFU, OGT / Fold change vs veh, OGT / RFU, BRD1 / Fold change vs veh, BRD1 / RFU, MARS / Fold change vs veh, MARS / RFU, ZNF655 / Fold change vs veh, ZNF655 / RFU, FAHD1 / Fold change vs veh, FAHD1 / RFU, BDP1 / Fold change vs veh, BDP1 / RFU, LRRCC1 / Fold change vs veh, LRRCC1 / RFU, ARID1A / Fold change vs veh, ARID1A / RFU, ZNF146 / Fold change vs veh, ZNF146 / RFU, ZNF330 / Fold change vs veh, ZNF330 / RFU, GPN3 / Fold change vs veh, GPN3 / RFU, C9orf123 / Fold change vs veh, C9orf123 / RFU, N4BP2L2 / Fold change vs veh, N4BP2L2 / RFU, ARFIP1 / Fold change vs veh, ARFIP1 / RFU, FAM179B / Fold change vs veh, FAM179B / RFU, BCL10 / Fold change vs veh, BCL10 / RFU, UHRF1BP1L / Fold change vs veh, UHRF1BP1L / RFU, BET1 / Fold change vs veh, BET1 / RFU, CNOT2 / Fold change vs veh, CNOT2 / RFU, ZNF268 / Fold change vs veh, ZNF268 / Fold change vs veh, ZNF507 / RFU, DGCR2 / Fold change vs veh, DGCR2 / RFU, WDSUB1 / Fold change vs veh, WDSUB1 / Fold change vs veh, HSP90B1 /// MIR3652 / RFU, ADSS / Fold change vs veh, ADSS / RFU, GK / Fold change vs veh, GK / RFU, ZNF148 / Fold change vs veh, ZNF148 / RFU, TAF9 / Fold change vs veh, TAF9 / RFU, SLC1A5 / Fold change vs veh, SLC1A5 / RFU, SLMO2 / Fold change vs veh, SLMO2 / RFU, ABCC4 / Fold change vs veh, ABCC4 / RFU, LOC101060439 /// RAP1B / Fold change vs veh, LOC101060439 /// RAP1B / RFU, RFX7 / Fold change vs veh, RFX7 / RFU, GTPBP10 / Fold change vs veh, GTPBP10 / RFU, CNEP1R1 / Fold change vs veh, CNEP1R1 / RFU, BIVM-ERCC5 /// ERCC5 / Fold change vs veh, BIVM-ERCC5 /// ERCC5 / RFU, ILF3 / Fold change vs veh, ILF3 / RFU 11762660_at / Fold change /veh 11762660_at / RFU VCAN (11757783_s_at) / Fold change /veh VCAN (11757783_s_at) / RFU DDX43 (11728927_at) / Fold change /veh DDX43 (11728927_at) / RFU KRT8 (11758188_x_at) / Fold change /veh KRT8 (11758188_x_at) / RFU NKD1 (11759106_at) / Fold change /veh NKD1 (11759106_at) / RFU SRD5A1 (11742802_a_at) / Fold change /veh SRD5A1 (11742802_a_at) / RFU TPSAB1 /// TPSB2 (11721975_s_at) / Fold change /veh TPSAB1 /// TPSB2 (11721975_s_at) / RFU GSTM3 (11746129_a_at) / Fold change /veh GSTM3 (11746129_a_at) / RFU IL23R (11737362_x_at) / Fold change /veh IL23R (11737362_x_at) / RFU TMEM51 (11727254_a_at) / Fold change /veh TMEM51 (11727254_a_at) / RFU PIWIL2 (11732686_x_at) / Fold change /veh PIWIL2 (11732686_x_at) / RFU ORM1 (11744905_x_at) / Fold change /veh ORM1 (11744905_x_at) / RFU CCDC152 (11743942_at) / Fold change /veh CCDC152 (11743942_at) / RFU ECM1 (11717891_a_at) / Fold change /veh ECM1 (11717891_a_at) / RFU IL23R (11748794_a_at) / Fold change /veh IL23R (11748794_a_at) / RFU TNFAIP8L3 (11732012_x_at) / Fold change /veh TNFAIP8L3 (11732012_x_at) / RFU MBOAT4 (11741988_at) / Fold change /veh MBOAT4 (11741988_at) / RFU 11764193_at / Fold change /veh 11764193_at / RFU TMEM53 (11763286_at) / Fold change /veh TMEM53 (11763286_at) / RFU MAGEB2 (11727129_at) / Fold change /veh MAGEB2 (11727129_at) / RFU TMEM200A (11744735_a_at) / Fold change /veh TMEM200A (11744735_a_at) / RFU CCDC152 (11751479_a_at) / Fold change /veh CCDC152 (11751479_a_at) / RFU FAM211A (11726209_a_at) / Fold change /veh FAM211A (11726209_a_at) / RFU RGS16 (11746705_a_at) / Fold change /veh RGS16 (11746705_a_at) / RFU VCAN (11755009_s_at) / Fold change /veh VCAN (11755009_s_at) / RFU RHOB (11743442_s_at) / Fold change /veh RHOB (11743442_s_at) / RFU RGS16 (11720943_a_at) / Fold change /veh RGS16 (11720943_a_at) / RFU RGS16 (11720944_at) / Fold change /veh RGS16 (11720944_at) / RFU, VPS4B / Fold change vs veh, VPS4B / RFU, CREB1 / Fold change vs veh, CREB1 / RFU, DNAJC13 / Fold change vs veh, DNAJC13 / RFU, GNAQ / Fold change vs veh, GNAQ / RFU, CDK5R1 / Fold change vs veh, CDK5R1 / RFU, ZRANB3 / Fold change vs veh, ZRANB3 / RFU, CUL4A / Fold change vs veh, CUL4A / RFU, CCNY / Fold change vs veh, CCNY / RFU, UFL1 / Fold change vs veh, UFL1 / RFU, COG3 / Fold change vs veh, COG3 / RFU, DIAPH2 / Fold change vs veh, DIAPH2 / RFU, SKA2 / Fold change vs veh, SKA2 / RFU, AFF3 / Fold change vs veh, AFF3 / RFU, LMF1 / Fold change vs veh, LMF1 / RFU, IPO11 / Fold change vs veh, IPO11 / RFU, DFFB / Fold change vs veh, DFFB / RFU, FOXP1 / Fold change vs veh, FOXP1 / RFU, CARD8 / Fold change vs veh, CARD8 / RFU, STRN3 / Fold change vs veh, STRN3 / RFU, ADK / Fold change vs veh, ADK / RFU, RASSF2 / Fold change vs veh, RASSF2 / RFU, WIPF1 / Fold change vs veh, WIPF1 / RFU, LARP1B / Fold change vs veh, LARP1B / RFU, RASA1 / Fold change vs veh, RASA1 / RFU, RB1 / Fold change vs veh, RB1 / RFU, PPFIA1 / Fold change vs veh, PPFIA1 / RFU, MAT2A / Fold change vs veh, MAT2A / RFU, CCT5 / Fold change vs veh, CCT5 / RFU, WDR92 / Fold change vs veh, WDR92 / RFU, CUX1 / Fold change vs veh, CUX1 / RFU, TTC7A / Fold change vs veh, TTC7A / RFU, TMEM135 / Fold change vs veh, TMEM135 / RFU, DEPTOR / Fold change vs veh, DEPTOR / RFU, CPM / Fold change vs veh, CPM / RFU, DNAJB6 / Fold change vs veh, DNAJB6 / RFU, CACNA2D3 / Fold change vs veh, CACNA2D3 / RFU, DTX4 / Fold change vs veh, DTX4 / RFU, TFCP2 / Fold change vs veh, TFCP2 / RFU, GMCL1 /// GMCL1P1 / Fold change vs veh, GMCL1 /// GMCL1P1 / RFU, AEBP2 / Fold change vs veh, AEBP2 / RFU, SNHG1 /// SNORD22 /// SNORD25 /// SNORD26 /// SNORD27 /// SNORD28 /// SNORD29 /// SNORD31 / Fold change vs veh, SNHG1 /// SNORD22 /// SNORD25 /// SNORD26 /// SNORD27 /// SNORD28 /// SNORD29 /// SNORD31 / Fold change (Aza/veh), C12orf56 (ProbeSet 11735607_a_at) / Fold change (ACY-1035/veh), C12orf56 (ProbeSet 11735607_a_at) / Fold change (Aza/veh), FGFR1OP (ProbeSet 11751329_s_at) / Fold change (ACY-1035/veh), FGFR1OP (ProbeSet 11751329_s_at) / Fold change (Aza/veh), VPS36 (ProbeSet 11739960_a_at) / Fold change (ACY-1035/veh), VPS36 (ProbeSet 11739960_a_at) / RFU SYPL1 (11715823_x_at) / Fold change /veh SYPL1 (11715823_x_at) / RFU IGFBP7 (11715501_s_at) / Fold change /veh IGFBP7 (11715501_s_at) / RFU REEP3 (11722064_at) / Fold change /veh REEP3 (11722064_at) / RFU IGLL1 (11728026_x_at) / Fold change /veh IGLL1 (11728026_x_at): dose or concentration left out as unconfirmed
Conditions: ProbeSet 11741311_a_at; LIST B

Nc1ncn([C@@H]2O[C@H](CO)[C@@H](O)[C@H]2O)c(=O)n1 [azacitidine]
Fold change vs veh, ZNF655: 0.98
